How the values were obtained:
[1] = tested on: Micrococcus luteus DSM 20030; assay: Antibacterial growth assay (OD600); details: for Antibacterial activity (in words): M. luteus DSM 20030, growth after 48 h; for Bacterial growth relative to medium, M. luteus, replicate 1 / Bacterial growth relative to medium, M. luteus, replicate 2 / Bacterial growth relative to medium, M. luteus, replicate 3: OD600, medium = 100, MH II broth, 37 °C, peptide 200 µM mixed 50 µL + 50 µL with bacteria, Figure 7: 48 h; for Bacterial growth relative to medium, M. luteus, replicate 1: replicate column 1; for Bacterial growth relative to medium, M. luteus, replicate 2: replicate column 2; for Bacterial growth relative to medium, M. luteus, replicate 3: replicate column 3
Procedure: (§1) Cryo-conserved cultures of selected bacterial strains (Table 4) were transferred to Tryptic Soy Agar (TSA) plates (Carl Roth) with a sterile inoculation loop, sealed with Parafilm (BEMIS, Neenah, WI, USA), and incubated for 1–2 days at 37 °C depending on growth. Single colonies were picked and transferred into 2–3 mL of the Mueller–Hinton II (MH II) broth (BD, Heidelberg, Germany). The bacteria were cultivated overnight, subcultured on fresh medium and grown for 3–4 h before testing at 37 °C, with shaking at 180 rpm. We measured the optical density at 600 nm (OD600) of 1 mL of the bacterial suspensions in polystyrene cuvettes (SARSTED, Nümbrecht, Germany) using an Ultrospec 10 spectrophotometer (Biochrome, Cambridge, UK). We then diluted them with the MH II medium to the preferred OD600 (Table 2). The peptides were dissolved in DMSO to generate 10 mmol/L stocks and diluted with the MH II medium to 200 µM before the assay. We used 10 µg/mL (~40 µg/mL for S. epidermidis) gentamicin and colistin (Sigma-Aldrich, Taufkirchen, Germany), DMSO and the medium only as controls. The bacteria were transferred to 96-multiwell plates with a final volume of 100 µL per well (50 µL bacterial suspension, and 50 µL test peptide). The OD600 was measured at 0, 24 and 48 h using a BioTek Eon microplate reader followed by analysis with Gen5 v2.09.

[2] = tested on: Pseudomonas aeruginosa DSM 1117; assay: Antibacterial growth assay (OD600); details: OD600, medium = 100, MH II broth, 37 °C, peptide 200 µM mixed 50 µL + 50 µL with bacteria, Figure 7: 48 h; for Bacterial growth relative to medium, P. aeruginosa (1117), replicate 1: replicate column 1; for Bacterial growth relative to medium, P. aeruginosa (1117), replicate 2: replicate column 2; for Bacterial growth relative to medium, P. aeruginosa (1117), replicate 3: replicate column 3
[3] = tested on: A/Hessen/1/2003 (H3N2); assay type: cell-based, influenza virus; details: for Viability of infected cells relative to aprotinin, Replicate 4: replicate 4 (additional internal control)
[4] = tested on: panel of seven bacterial strains; assay: Antibacterial growth assay (OD600), statements on the whole panel; assay type: cell-based; details: growth after 48 h
[5] = tested on: Staphylococcus aureus DSM 2569; assay: Antibacterial growth assay (OD600); details: OD600, medium = 100, MH II broth, 37 °C, peptide 200 µM mixed 50 µL + 50 µL with bacteria, Figure 7: 48 h; for Bacterial growth relative to medium, S. aureus, replicate 1: replicate column 1; for Bacterial growth relative to medium, S. aureus, replicate 2: replicate column 2; for Bacterial growth relative to medium, S. aureus, replicate 3: replicate column 3
Procedure: as §1

[6] = tested on: G. mellonella larvae; assay: Insecticidal activity by injection into larvae; assay type: in vivo, Galleria mellonella; details: 50 ng peptide injected, 3 cohorts of 10 larvae, survival monitored for 5 days
[7] = tested on: Staphylococcus epidermidis DSM 28319; assay: Antibacterial growth assay (OD600); details: OD600, medium = 100, MH II broth, 37 °C, peptide 200 µM mixed 50 µL + 50 µL with bacteria, Figure 7: 48 h; for Bacterial growth relative to medium, S. epidermidis, replicate 1: replicate column 1; for Bacterial growth relative to medium, S. epidermidis, replicate 2: replicate column 2; for Bacterial growth relative to medium, S. epidermidis, replicate 3: replicate column 3
[8] = tested on: A/Hamburg/05/2009 (H1N1); assay type: cell-based, influenza virus
[9] = tested on: Pseudomonas aeruginosa DSM 50071; assay: Antibacterial growth assay (OD600); details: OD600, medium = 100, MH II broth, 37 °C, peptide 200 µM mixed 50 µL + 50 µL with bacteria, Figure 7: 48 h; for Bacterial growth relative to medium, P. aeruginosa (50071), replicate 1: replicate column 1; for Bacterial growth relative to medium, P. aeruginosa (50071), replicate 2: replicate column 2; for Bacterial growth relative to medium, P. aeruginosa (50071), replicate 3: replicate column 3
[10] = tested on: Listeria monocytogenes DSM 20600; assay: Antibacterial growth assay (OD600); details: OD600, medium = 100, MH II broth, 37 °C, peptide 200 µM mixed 50 µL + 50 µL with bacteria, Figure 7: 48 h; for Bacterial growth relative to medium, L. monocytogenes, replicate 1: replicate column 1; for Bacterial growth relative to medium, L. monocytogenes, replicate 2: replicate column 2; for Bacterial growth relative to medium, L. monocytogenes, replicate 3: replicate column 3
[11] = tested on: B/Malaysia/2506/2004 (B-Mal); assay type: cell-based, influenza virus
[12] = tested on: Escherichia coli BL21(DE3); assay: Antibacterial growth assay (OD600); details: OD600, medium = 100, MH II broth, 37 °C, peptide 200 µM mixed 50 µL + 50 µL with bacteria, Figure 7: 48 h; for Bacterial growth relative to medium, E. coli, replicate 1: replicate column 1; for Bacterial growth relative to medium, E. coli, replicate 2: replicate column 2; for Bacterial growth relative to medium, E. coli, replicate 3: replicate column 3

Sequence	Antibacterial activity (in words) [1]	Bacterial growth relative to medium, M. luteus, replicate 1 [1]	Bacterial growth relative to medium, M. luteus, replicate 2 [1]	Bacterial growth relative to medium, M. luteus, replicate 3 [1]	Bacterial growth relative to medium, P. aeruginosa (1117), replicate 1 [2]	Bacterial growth relative to medium, P. aeruginosa (1117), replicate 2 [2]	Bacterial growth relative to medium, P. aeruginosa (1117), replicate 3 [2]	Viability of infected cells relative to aprotinin, Replicate 1 [3]	Viability of infected cells relative to aprotinin, Replicate 2 [3]	Viability of infected cells relative to aprotinin, Replicate 3 [3]	Viability of infected cells relative to aprotinin, Replicate 4 [3]	Antibacterial activity over the panel (in words) [4]	Bacterial growth relative to medium, S. aureus, replicate 1 [5]	Bacterial growth relative to medium, S. aureus, replicate 2 [5]	Bacterial growth relative to medium, S. aureus, replicate 3 [5]	Insecticidal effect on larvae (in words) [6]	Bacterial growth relative to medium, S. epidermidis, replicate 1 [7]	Bacterial growth relative to medium, S. epidermidis, replicate 2 [7]	Bacterial growth relative to medium, S. epidermidis, replicate 3 [7]	Viability of infected cells relative to aprotinin, Replicate 1 [8]	further results
DVVKSKVGQT [LS-AMP-A20]	strongest effect	84.9437	89.1892	58.8713	78.7161	66.133	53.5452	0.06093	0.1556	0.1529	0.1478	marginal effects against several bacteria	65.5327	71.5501	85.4097	Individual dead insects	65.0524	56.0414	87.4721	0.03404	Viability of infected cells relative to aprotinin, Replicate 2 [8]: 0.03606; Viability of infected cells relative to aprotinin, Replicate 3 [8]: 0.06978; Bacterial growth relative to medium, P. aeruginosa (50071), replicate 1 [9]: 100.814; Bacterial growth relative to medium, P. aeruginosa (50071), replicate 2 [9]: 110.766; Bacterial growth relative to medium, P. aeruginosa (50071), replicate 3 [9]: 86.151; Bacterial growth relative to medium, L. monocytogenes, replicate 1 [10]: 113.144; Bacterial growth relative to medium, L. monocytogenes, replicate 2 [10]: 85.2342; Bacterial growth relative to medium, L. monocytogenes, replicate 3 [10]: 40.8896; Viability of infected cells relative to aprotinin, Replicate 1 [11]: 0.07308; Viability of infected cells relative to aprotinin, Replicate 2 [11]: 0.07936; Viability of infected cells relative to aprotinin, Replicate 3 [11]: 0.06088; Bacterial growth relative to medium, E. coli, replicate 1 [12]: 95.2629; Bacterial growth relative to medium, E. coli, replicate 2 [12]: 75.2606; Bacterial growth relative to medium, E. coli, replicate 3 [12]: 50.6769
SLLGLLDVVKNTVGQT [LS-AMP-A10]	no activity	61.1915	88.7389	35.3419	65.0772	90.1148	64.0892	0.05441	0.1761	0.1729	0.1942	inhibited the growth of most of the bacteria except two	64.1206	64.9771	91.1709	Individual dead insects	79.4001	71.0012	83.073	0.0352	Viability of infected cells relative to aprotinin, Replicate 2 [8]: 0.02417; Viability of infected cells relative to aprotinin, Replicate 3 [8]: 0.03391; Bacterial growth relative to medium, P. aeruginosa (50071), replicate 1 [9]: 97.2952; Bacterial growth relative to medium, P. aeruginosa (50071), replicate 2 [9]: 110.352; Bacterial growth relative to medium, P. aeruginosa (50071), replicate 3 [9]: 83.9978; Bacterial growth relative to medium, L. monocytogenes, replicate 1 [10]: 109.148; Bacterial growth relative to medium, L. monocytogenes, replicate 2 [10]: 78.161; Bacterial growth relative to medium, L. monocytogenes, replicate 3 [10]: 28.6946; Viability of infected cells relative to aprotinin, Replicate 1 [11]: 0.07328; Viability of infected cells relative to aprotinin, Replicate 2 [11]: 0.09773; Viability of infected cells relative to aprotinin, Replicate 3 [11]: 0.07183; Bacterial growth relative to medium, E. coli, replicate 1 [12]: 81.6291; Bacterial growth relative to medium, E. coli, replicate 2 [12]: 64.3105; Bacterial growth relative to medium, E. coli, replicate 3 [12]: 57.0069

— article PMC10221074, “Functional Profiling of the A-Family of Venom Peptides from the Wolf Spider Lycosa shansia” (Toxins, 2023)
